The values that follow are results of earlier work, collected in patent publication EP0116853A1, “Pyridazinones, processes for preparing them, therapeutical compositions containing these compounds and their use” (BASF Aktiengesellschaft, priority 1983, dated 1984).

The conditions of this data set: in contrast to the corresponding 4,5-dihydro compound.

Regarding `CC(=O)Nc1ccc(-c2n[nH]c(=O)cc2C)cc1` [6-(p-Acetylamino-phenyl)-5-methyl-3(2H)-pyridazinon], the “blutdrucksenkende Wirkung” value is on record as “keine blutdrucksenkende Wirkung”.
